# Experimental data reported in PMC10215804, “Exploring Alternative Pathways to Target Bacterial Type II Topoisomerases Using NBTI Antibacterials: Beyond Halogen-Bonding Interactions” (Antibiotics, 2023).
# Where two headings read alike, the source gives them in different places.
# Legend:
# [1] = target: T1, S. aureus DNA gyrase (Staphylococcus aureus, UniProt P20831); test: biochemical; conditions: supercoiling inhibition; mean of two independent measurements ± SD
# T1 construct: purchased Inspiralis (Norwich, UK)
# Experimental: (§1) To determine the IC50 values of the compounds for S. aureus and E. coli, a DNA gyrase supercoiling high-throughput plate assay and a topoIV relaxation high-throughput plate assay were performed. Assay kits and black streptavidin-coated 96-well microtiter plates are available from Inspiralis (Norwich, UK). For pre-screening, an inhibitor concentration of 100 μM was used. […] A nonlinear regression-based fit of the inhibition curves was used, with the log [inhibitor] versus slope of the reaction variables (four parameters) and a symmetric equation. […] To determine IC50 values, two independent repetitions were performed and the average was calculated.
# [2] = target: T2, S. aureus topoIV (Staphylococcus aureus, UniProt P0C1U9); test: biochemical; conditions: relaxation inhibition; mean of two independent measurements ± SD
# T2 construct: purchased Inspiralis (Norwich, UK)
# T2 sequence (P0C1U9 whole entry): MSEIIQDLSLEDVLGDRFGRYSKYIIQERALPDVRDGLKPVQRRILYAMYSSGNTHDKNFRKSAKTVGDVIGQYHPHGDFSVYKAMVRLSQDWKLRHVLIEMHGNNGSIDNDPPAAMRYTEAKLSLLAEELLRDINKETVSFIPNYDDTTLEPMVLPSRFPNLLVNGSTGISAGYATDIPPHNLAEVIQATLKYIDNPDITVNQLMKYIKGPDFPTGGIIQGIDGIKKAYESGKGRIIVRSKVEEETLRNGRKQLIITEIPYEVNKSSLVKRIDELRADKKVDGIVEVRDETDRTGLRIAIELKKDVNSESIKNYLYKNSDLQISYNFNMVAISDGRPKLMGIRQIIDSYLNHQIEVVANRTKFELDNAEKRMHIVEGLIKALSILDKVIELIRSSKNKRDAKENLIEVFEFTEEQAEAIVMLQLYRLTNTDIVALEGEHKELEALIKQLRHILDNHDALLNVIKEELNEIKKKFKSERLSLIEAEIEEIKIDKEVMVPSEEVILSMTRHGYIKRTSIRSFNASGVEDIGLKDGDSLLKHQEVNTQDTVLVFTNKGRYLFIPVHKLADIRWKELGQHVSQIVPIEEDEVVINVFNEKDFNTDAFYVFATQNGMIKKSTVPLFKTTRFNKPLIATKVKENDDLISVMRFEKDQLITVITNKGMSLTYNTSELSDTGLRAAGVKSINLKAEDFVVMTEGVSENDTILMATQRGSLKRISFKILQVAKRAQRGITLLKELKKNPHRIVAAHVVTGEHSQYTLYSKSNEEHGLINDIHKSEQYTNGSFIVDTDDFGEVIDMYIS
# T2 sequence (P0C1S7 whole entry partner): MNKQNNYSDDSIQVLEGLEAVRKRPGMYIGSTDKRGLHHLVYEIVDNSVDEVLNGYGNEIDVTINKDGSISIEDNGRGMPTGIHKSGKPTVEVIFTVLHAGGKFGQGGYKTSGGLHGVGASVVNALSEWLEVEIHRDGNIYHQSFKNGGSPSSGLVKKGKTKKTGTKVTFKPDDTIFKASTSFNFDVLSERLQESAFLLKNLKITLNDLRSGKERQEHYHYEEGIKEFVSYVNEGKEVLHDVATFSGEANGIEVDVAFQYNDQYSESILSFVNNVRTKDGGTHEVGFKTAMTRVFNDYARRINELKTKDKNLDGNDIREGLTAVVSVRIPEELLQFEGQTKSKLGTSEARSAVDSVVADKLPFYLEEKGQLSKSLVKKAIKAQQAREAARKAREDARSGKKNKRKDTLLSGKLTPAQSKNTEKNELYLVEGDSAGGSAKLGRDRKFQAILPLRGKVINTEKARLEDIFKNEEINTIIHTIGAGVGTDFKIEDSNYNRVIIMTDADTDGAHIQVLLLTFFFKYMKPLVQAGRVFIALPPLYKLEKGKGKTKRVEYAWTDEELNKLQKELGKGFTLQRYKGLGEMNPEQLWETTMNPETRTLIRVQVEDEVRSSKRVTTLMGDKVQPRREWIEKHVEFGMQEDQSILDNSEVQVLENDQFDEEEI
# Experimental: as §1
# [3] = target: T3, E. coli DNA gyrase (Escherichia coli, UniProt P0AES4); test: DNA gyrase supercoiling inhibition assay (high-throughput plate assay); type: biochemical
# T3 construct: purchased Inspiralis (Norwich, UK)
# Experimental: as §1
# [4] = target: T4, E. coli topoIV (Escherichia coli, UniProt P0AFI2); test: topoIV relaxation inhibition assay (high-throughput plate assay); type: biochemical
# T4 construct: purchased Inspiralis (Norwich, UK)
# T4 sequence (P20083 whole entry): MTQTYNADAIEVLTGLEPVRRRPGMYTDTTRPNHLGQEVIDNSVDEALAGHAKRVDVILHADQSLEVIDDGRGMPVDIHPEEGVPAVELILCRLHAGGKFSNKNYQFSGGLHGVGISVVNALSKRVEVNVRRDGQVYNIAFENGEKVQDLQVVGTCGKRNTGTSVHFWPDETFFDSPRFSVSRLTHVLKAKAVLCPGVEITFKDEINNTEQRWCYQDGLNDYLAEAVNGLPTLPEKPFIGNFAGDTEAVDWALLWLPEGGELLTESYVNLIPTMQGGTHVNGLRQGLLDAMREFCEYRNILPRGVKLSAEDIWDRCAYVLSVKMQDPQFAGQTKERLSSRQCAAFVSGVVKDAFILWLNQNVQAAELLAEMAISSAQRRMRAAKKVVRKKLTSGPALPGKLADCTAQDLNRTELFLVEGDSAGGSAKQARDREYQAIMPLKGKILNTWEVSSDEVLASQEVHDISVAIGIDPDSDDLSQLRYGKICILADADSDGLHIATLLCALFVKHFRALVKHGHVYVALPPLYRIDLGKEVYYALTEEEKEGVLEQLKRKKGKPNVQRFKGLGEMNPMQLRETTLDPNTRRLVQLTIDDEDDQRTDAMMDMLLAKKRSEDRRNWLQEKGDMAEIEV
# T4 sequence (P0AFI2 whole entry): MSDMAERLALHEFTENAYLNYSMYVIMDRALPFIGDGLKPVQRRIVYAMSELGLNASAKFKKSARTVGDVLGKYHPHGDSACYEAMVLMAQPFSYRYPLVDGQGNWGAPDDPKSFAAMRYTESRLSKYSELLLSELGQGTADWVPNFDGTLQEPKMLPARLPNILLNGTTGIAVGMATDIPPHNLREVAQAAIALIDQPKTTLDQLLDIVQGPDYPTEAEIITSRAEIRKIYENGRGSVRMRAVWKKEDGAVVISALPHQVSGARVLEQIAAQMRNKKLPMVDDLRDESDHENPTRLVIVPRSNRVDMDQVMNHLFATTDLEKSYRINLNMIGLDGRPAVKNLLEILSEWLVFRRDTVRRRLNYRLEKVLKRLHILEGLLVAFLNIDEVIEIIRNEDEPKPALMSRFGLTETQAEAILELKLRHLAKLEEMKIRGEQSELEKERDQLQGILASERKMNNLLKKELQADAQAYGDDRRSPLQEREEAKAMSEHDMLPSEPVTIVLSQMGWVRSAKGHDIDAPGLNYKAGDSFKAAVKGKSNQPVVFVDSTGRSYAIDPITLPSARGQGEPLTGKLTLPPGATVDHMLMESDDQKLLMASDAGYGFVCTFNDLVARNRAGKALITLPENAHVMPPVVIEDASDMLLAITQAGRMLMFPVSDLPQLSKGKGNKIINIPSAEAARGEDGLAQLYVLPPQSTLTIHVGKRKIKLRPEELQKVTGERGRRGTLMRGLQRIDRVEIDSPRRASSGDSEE
# Experimental: as §1
# [5] = target: T5, human topoisomerase IIα (Homo sapiens, UniProt P11388); test: human topoisomerase II alpha relaxation high-throughput assay (selectivity); type: biochemical; conditions: residual activity at 100 µM compound; mean ± SD, two independent experiments; read-out: Human TopoIIα (% RA at 100 µM)
# T5 construct: purchased Inspiralis (Norwich, UK)
# T5 sequence (P11388 whole entry): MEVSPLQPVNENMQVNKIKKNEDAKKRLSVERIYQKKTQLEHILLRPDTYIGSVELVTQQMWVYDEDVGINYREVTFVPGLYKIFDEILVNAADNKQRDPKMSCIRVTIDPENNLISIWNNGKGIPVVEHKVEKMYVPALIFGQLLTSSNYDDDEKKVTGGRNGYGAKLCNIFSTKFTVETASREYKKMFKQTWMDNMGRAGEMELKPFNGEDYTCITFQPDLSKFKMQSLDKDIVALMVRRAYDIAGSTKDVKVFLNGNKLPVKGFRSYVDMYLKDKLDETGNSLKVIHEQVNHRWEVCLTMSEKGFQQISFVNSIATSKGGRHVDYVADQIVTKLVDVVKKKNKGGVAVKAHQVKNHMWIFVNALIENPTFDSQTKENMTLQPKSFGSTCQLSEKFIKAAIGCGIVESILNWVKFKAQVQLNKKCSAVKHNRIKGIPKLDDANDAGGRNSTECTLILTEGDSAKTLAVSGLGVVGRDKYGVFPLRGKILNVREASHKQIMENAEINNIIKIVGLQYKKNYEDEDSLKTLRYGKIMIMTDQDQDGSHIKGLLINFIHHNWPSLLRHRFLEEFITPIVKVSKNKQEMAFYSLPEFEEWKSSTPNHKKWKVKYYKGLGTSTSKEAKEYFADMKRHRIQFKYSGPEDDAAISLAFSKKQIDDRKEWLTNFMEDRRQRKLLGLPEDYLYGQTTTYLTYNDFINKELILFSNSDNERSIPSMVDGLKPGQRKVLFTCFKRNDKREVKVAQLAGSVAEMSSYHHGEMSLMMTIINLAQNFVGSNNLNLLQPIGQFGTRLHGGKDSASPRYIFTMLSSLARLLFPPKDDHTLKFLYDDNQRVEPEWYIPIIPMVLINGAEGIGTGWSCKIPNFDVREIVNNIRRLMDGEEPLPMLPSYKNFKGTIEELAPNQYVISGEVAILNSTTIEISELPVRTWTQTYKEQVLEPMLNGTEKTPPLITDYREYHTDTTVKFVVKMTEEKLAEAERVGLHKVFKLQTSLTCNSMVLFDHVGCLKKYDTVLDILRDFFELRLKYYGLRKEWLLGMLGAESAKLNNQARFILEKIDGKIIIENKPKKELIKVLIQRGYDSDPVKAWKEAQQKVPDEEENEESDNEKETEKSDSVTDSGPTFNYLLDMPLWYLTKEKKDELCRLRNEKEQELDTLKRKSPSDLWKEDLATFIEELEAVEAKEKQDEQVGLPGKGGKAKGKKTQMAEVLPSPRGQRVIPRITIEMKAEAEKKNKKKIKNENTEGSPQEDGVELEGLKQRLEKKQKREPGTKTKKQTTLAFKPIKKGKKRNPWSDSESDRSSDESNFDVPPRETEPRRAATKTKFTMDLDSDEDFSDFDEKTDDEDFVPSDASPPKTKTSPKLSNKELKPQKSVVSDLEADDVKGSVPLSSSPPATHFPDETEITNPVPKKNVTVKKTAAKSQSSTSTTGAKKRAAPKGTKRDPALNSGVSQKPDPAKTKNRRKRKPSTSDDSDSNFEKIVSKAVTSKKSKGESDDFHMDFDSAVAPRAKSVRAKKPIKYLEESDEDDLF
# Experimental: For selectivity determination, a human topoisomerase II alpha relaxation high-throughput assay was used. The assay kits and black streptavidin-coated 96-well microtiter plates are available from Inspiralis (Norwich, UK). Two independent measurements were performed with an inhibitory concentration of 100 µM. Raw data were calculated as the mean ± SD percentage of the residual enzyme activity.
# [6] = test system: A. baumannii; test: MIC, broth microdilution; type: cell-based; conditions: Acinetobacter baumannii
# Experimental: (§2) For the determination of minimum inhibitory concentrations (MIC), the broth microdilution method was used in 96-well plate format, according to the guidelines of the Clinical and Laboratory Standards Institute and the recommendations of the European Committee on Antimicrobial Susceptibility Testing (EUCAST). The dilutions of the bacterial suspension of the specific bacterial strain, corresponding to the 0.5 McFarland turbidity standard, were prepared with […] Mueller–Hinton broth with TES (Thermo Fisher Scientific) to obtain an end inoculum of 10^5 CFU/mL. The compounds were dissolved in DMSO and mixed with the inoculum. […] The MIC was determined as the lowest concentration of antibiotic that prevented visible bacterial growth. Tetracycline was used as a positive control on each test plate.
# [7] = test system: E. coli (ATCC 25922); test: MIC, broth microdilution; type: cell-based; conditions: Escherichia coli
# Experimental: as §2
# [8] = test system: E. coli D22; test: MIC, broth microdilution; type: cell-based; conditions: Escherichia coli
# Experimental: as §2
# [9] = test system: E. coli ESBL QA-11.3; test: MIC, broth microdilution; type: cell-based; conditions: Escherichia coli
# Experimental: as §2
# [10] = test system: E. coli N43 (CGSC# 5583); test: MIC, broth microdilution; type: cell-based; conditions: Escherichia coli
# Experimental: as §2
# [11] = test system: E. faecalis RDK 057; test: MIC, broth microdilution; type: cell-based; conditions: Enterococcus faecalis, RDK057
# Experimental: as §2
# [12] = test system: K. pneumoniae; test: MIC, broth microdilution; type: cell-based; conditions: Klebsiella pneumoniae
# Experimental: as §2
# [13] = test system: P. aeruginosa RDK 184; test: MIC, broth microdilution; type: cell-based; conditions: Pseudomonas aeruginosa
# Experimental: as §2
# [14] = test system: S. aureus (ATCC 29213); test: MIC, broth microdilution; type: cell-based; conditions: Staphylococcus aureus
# Experimental: as §2
# [15] = Metabolic activity assessment (cytotoxicity), CellTiter 96 Aqueous One; type: cell-based; conditions: human, 72 h treatment, means of three independent measurements ± SD
# Experimental: HUVEC (ATCC® CRL-1730™) and HepG2 (ATCC® HB-8065™) cell lines were cultured in Dulbecco’s Modified Eagle Medium (DMEM; Sigma-Aldrich, St. Louis, MO, USA) supplemented with 10% heat-deactivated FBS (Gibco, Grand Island, NE, USA), 2 mM L-glutamine, 100 U/mL penicillin, 100 μg/mL streptomycin (all from Sigma-Aldrich, St. Louis, MO, USA) in a humidified chamber at 37 °C and 5% CO2. The experiments were carried out on passages 4–7 for both cell lines. The tested compounds were dissolved in DMSO and further diluted in culture medium to a desired final concentration. The cells were then seeded into 96-well plates at 5 × 10^4 cells/mL (100 μL/well) or 8 × 10^4 cells/mL (100 μL/well) for HUVEC and HepG2, respectively. The cells were then incubated for 24 h to allow attachment onto the wells. The cells were treated with 1 μM and 50 μM of each compound of interest, or the corresponding vehicle as control. […] Their metabolic activity was assessed after 72 h treatment using a CellTiter 96 Aqueous One Solution Cell Proliferation Assay (Promega, Madison, WI, USA), in accordance with the manufacturer’s instructions. The absorbance was measured at 492 nm on an automated microplate reader, Tecan Spark (Tecan Group Ltd., Männedorf, CH, Switzerland). Data are presented as the percentage of metabolic activity of control cells stimulated with vehicle, or as an IC50 value (mean ± SD) from three independent experiments, each conducted in triplicate (for screening) or duplicate (for IC50 determination). IC50 values were calculated using a non-linear regression model and with Graph Pad Prism 9 software.
# [16] = test system: VRE; test: MIC, broth microdilution; type: cell-based; conditions: Enterococcus
# Experimental: as §2
# [17] = test system: MRSA (QA-11.2); test: MIC, broth microdilution; type: cell-based, S. aureus; conditions: Staphylococcus aureus
# Experimental: as §2
# [18] = test system: MRSA (QA-11.7); test: MIC, broth microdilution; type: cell-based, S. aureus; conditions: Staphylococcus aureus
# Experimental: as §2
# [19] = test system: MRSA(QA-12.1); test: MIC, broth microdilution; type: cell-based, S. aureus; conditions: Staphylococcus aureus
# Experimental: as §2
# [20] = ATCC25922, read-out: MIC E. coli (ATCC 25922)
# [21] = read-out: MIC E. coli N43 (CGSC# 5583)
# [22] = Table S3, read-out: MIC (μM) E. faecalis DRK 057
# [23] = read-out: MIC E. faecalis RDK 057
# [24] = RDK184, read-out: MIC P. aeruginosa RDK 184
compound,measurement,setting,value
"COc1ccc2nccc(CCN3CCC(NCc4ccc(N)cc4)CC3)c2n1 [Compound 9, N-(4-Aminobenzyl)-1-(2-(6-methoxy-1,5-naphthyridin-4-yl)ethyl)piperidin-4-amine]",IC50,[1],1.38 ± 0.108 µM
same,IC50,[2],> 100 µM
same,IC50,[3],> 100 µM
same,IC50,[4],5.698 ± 0.014 µM
same,remaining activity at 100 µM,[5],100 ± 1%
same,MIC,"[6]; 20 h, Table S3, read-out: MIC (μM) A. baumannii",> 328 µM
same,MIC,[6]; read-out: MIC A. baumannii,> 128 µg/mL
same,MIC,"[7]; ATCC25922, 20 h, Table S3, read-out: MIC (μM) E. coli (ATCC 25922)",> 328 µM
same,MIC,[7]; [20],> 128 µg/mL
same,MIC,"[8]; D22, 20 h, Table S3, lpxC mutation, read-out: MIC (μM) E. coli D22",> 328 µM
same,MIC,"[8]; D22, lpxC mutation that increases membrane permeability, read-out: MIC E. coli D22",> 128 µg/mL
same,MIC,"[9]; ESBLQA11.3, 20 h, Table S3, read-out: MIC (μM) E. coli ESBL QA:11.3",> 328 µM
same,MIC,"[9]; ESBLQA11.3, read-out: MIC E. coli ESBL QA-11.3",> 128 µg/mL
same,MIC,[10]; read-out: MIC (μM) E. coli N43,164 µM
same,MIC,[10]; [21],64 µg/mL
same,MIC,[11]; [22],> 328 µM
same,MIC,[11]; [23],> 128 µg/mL
same,MIC,"[12]; 20 h, Table S3, read-out: MIC (μM) K. pneumoniae",> 328 µM
same,MIC,[12]; read-out: MIC K. pneumoniae,> 128 µg/mL
same,MIC,"[13]; RDK184, 20 h, Table S3, read-out: MIC (μM) P. aeruginosa RDK 184",> 328 µM
same,MIC,[13]; [24],> 128 µg/mL
same,MIC,"[14]; ATCC29213, read-out: MIC (μM) S. aureus (ATCC 29213)",164 µM
same,MIC,"[14]; ATCC29213, read-out: MIC S. aureus (ATCC 29213)",64 µg/mL
same,IC50 at 72 h,[15]; HUVEC cells (ATCC CRL-1730),34 ± 16.9 µM
same,IC50 at 72 h,[15]; HepG2 cells (ATCC HB-8065),26.1 ± 9.52 µM
"O=c1ccc2ncc(=O)n3c2n1C[C@H]3CN1CCC(NCc2cc3c(cn2)OCCC3)CC1 [Gepo, gepotidacin, reference compound]",MIC,"[6]; Table S3, read-out: MIC (μM) A. baumannii",20.5 µM
same,MIC,[6]; read-out: MIC A. baumannii,8 µg/mL
same,MIC,"[7]; ATCC25922, Table S3, read-out: MIC (μM) E. coli (ATCC 25922)",2.56 µM
same,MIC,[7]; [20],1 µg/mL
same,MIC,"[8]; D22, Table S3, lpxC mutation, read-out: MIC (μM) E. coli D22",0.32 µM
same,MIC,[10]; read-out: MIC (μM) E. coli N43,0.041 µM
same,MIC,[10]; [21],0.016 µg/mL
same,MIC,[11]; [22],5.12 µM
same,MIC,[11]; [23],2 µg/mL
same,MIC,"[12]; Table S3, read-out: MIC (μM) K. pneumoniae",20.5 µM
same,MIC,[12]; read-out: MIC K. pneumoniae,8 µg/mL
same,MIC,"[13]; RDK184, Table S3, read-out: MIC (μM) P. aeruginosa RDK 184",20.5 µM
same,MIC,[13]; [24],8 µg/mL
same,MIC,"[14]; ATCC29213, Table S3, read-out: MIC (μM) S. aureus (ATCC 29213)",0.32 µM
same,MIC,"[16]; Table S3, read-out: MIC (μM) VRE",2.56 µM
same,MIC,[16]; read-out: MIC VRE,1 µg/mL
same,MIC,"[17]; Table S3, read-out: MIC (μM) MRSA (QA-11.2)",1.28 µM
same,MIC,[17]; read-out: MIC MRSA (QA-11.2),0.5 µg/mL
same,MIC,"[18]; Table S3, read-out: MIC (μM) MRSA (QA-11.7)",0.161 µM
same,MIC,"[18]; strain resistant to cefoxitin, ciprofloxacin, clindamycin, erythromycin, tetracycline, thiamulin, trimethoprim, read-out: MIC MRSA (QA-11.7)",0.063 µg/mL
same,MIC,"[19]; Table S3, read-out: MIC (μM) MRSA(QA-12.1)",0.32 µM
same,MIC,"[19]; strain resistant to cefoxitin, gentamicin, kanamycin, rifampicin, streptomycin, sulfamethoxazole, tetracycline, read-out: MIC MRSA(QA-12.1)",0.125 µg/mL
